System: harmful plant species
Assay: Specific trial examples: synergistic effect (Δ) of herbicidal binary compositions applied by the post-emergence method, observed vs Colby expected value (Tables 3.1-3.4)
Assay type: in vivo

O=C(Nc1ccc(F)cc1F)c1cccnc1Oc1cccc(C(F)(F)F)c1 [(B2.18) Diflufenican]
Herbicidal action 14 DAT [%] against Alopecurus myosuroides (30 g a.i./ha, post-emergence): 20%
Herbicidal action 14 DAT [%] against Phalaris minor (30 g a.i./ha, post-emergence): 20%
Herbicidal action 21 DAT [%] against Abutilon theophrasti (30 g a.i./ha, post-emergence): 20%
Herbicidal action 21 DAT [%] against Ipomoea purpurea (30 g a.i./ha, post-emergence): 30%
Herbicidal action 21 DAT [%] against Kochia Scoparia (30 g a.i./ha, post-emergence): 10%
Herbicidal action 21 DAT [%] against Setaria viridis (30 g a.i./ha, post-emergence): 10%
Herbicidal action 28 DAT [%] against Phalaris minor (30 g a.i./ha, post-emergence): 10%
Herbicidal action 28 DAT [%] against Poa annua L. (30 g a.i./ha, post-emergence): 10%
Herbicidal action 28 DAT [%] against Veronica hederifolia (30 g a.i./ha, post-emergence): 20%
Herbicidal action 14 DAT [%] against Alopecurus myosuroides (90 g a.i./ha, post-emergence): 20%
Herbicidal action 14 DAT [%] against Lolium rigidum (90 g a.i./ha, post-emergence): 20%
Herbicidal action 14 DAT [%] against Poa annua L. (90 g a.i./ha, post-emergence): 20%
Herbicidal action 21 DAT [%] against Abutilon theophrasti (90 g a.i./ha, post-emergence): 20%
Herbicidal action 21 DAT [%] against Kochia Scoparia (90 g a.i./ha, post-emergence): 20%
Herbicidal action 21 DAT [%] against Setaria viridis (90 g a.i./ha, post-emergence): 20%
Herbicidal action 28 DAT [%] against Phalaris minor (90 g a.i./ha, post-emergence): 10%
Herbicidal action 28 DAT [%] against Poa annua L. (90 g a.i./ha, post-emergence): 20%
Herbicidal action 28 DAT [%] against Veronica hederifolia (90 g a.i./ha, post-emergence): 20%
Herbicidal action 14 DAT [%] against Lolium rigidum (270 g a.i./ha, post-emergence): 20%
Herbicidal action 14 DAT [%] against Matricaria inodora (270 g a.i./ha, post-emergence): 30%
Herbicidal action 14 DAT [%] against Phalaris minor (270 g a.i./ha, post-emergence): 30%
Herbicidal action 14 DAT [%] against Veronica hederifolia (270 g a.i./ha, post-emergence): 30%
Herbicidal action 21 DAT [%] against Abutilon theophrasti (270 g a.i./ha, post-emergence): 30%
Herbicidal action 21 DAT [%] against Ipomoea purpurea (270 g a.i./ha, post-emergence): 60%
Herbicidal action 21 DAT [%] against Kochia Scoparia (270 g a.i./ha, post-emergence): 25%
Herbicidal action 28 DAT [%] against Alopecurus myosuroides (270 g a.i./ha, post-emergence): 20%
Herbicidal action 28 DAT [%] against Lolium rigidum (270 g a.i./ha, post-emergence): 30%
Herbicidal action 28 DAT [%] against Matricaria inodora (270 g a.i./ha, post-emergence): 20%
Herbicidal action 28 DAT [%] against Phalaris minor (270 g a.i./ha, post-emergence): 30%
Herbicidal action 28 DAT [%] against Poa annua L. (270 g a.i./ha, post-emergence): 30%
Herbicidal action 28 DAT [%] against Veronica hederifolia (270 g a.i./ha, post-emergence): 30%

CP(=O)(O)CCC(N)C(=O)O (stereo not shown) [(B7.4) Glufosinate]
Herbicidal action 21 DAT [%] against Abutilon theophrasti (50 g a.i./ha, post-emergence): 50%
Herbicidal action 21 DAT [%] against Kochia Scoparia (50 g a.i./ha, post-emergence): 10%
Herbicidal action 21 DAT [%] against Amaranthus palmeri (50 g a.i./ha, post-emergence (Z25)): 35%
Herbicidal action 14 DAT [%] against Phalaris minor (60 g a.i./ha, post-emergence): 20%
Herbicidal action 14 DAT [%] against Veronica hederifolia (60 g a.i./ha, post-emergence): 50%
Herbicidal action 28 DAT [%] against Phalaris minor (60 g a.i./ha, post-emergence): 10%
Herbicidal action 21 DAT [%] against Amaranthus palmeri (150 g a.i./ha, post-emergence): 90%
Herbicidal action 21 DAT [%] against Kochia Scoparia (150 g a.i./ha, post-emergence): 50%
Herbicidal action 14 DAT [%] against Centaurea cyanus (180 g a.i./ha, post-emergence): 60%
Herbicidal action 14 DAT [%] against Lolium rigidum (180 g a.i./ha, post-emergence): 40%
Herbicidal action 28 DAT [%] against Centaurea cyanus (180 g a.i./ha, post-emergence): 30%
Herbicidal action 28 DAT [%] against Matricaria inodora (180 g a.i./ha, post-emergence): 60%
Herbicidal action 28 DAT [%] against Phalaris minor (180 g a.i./ha, post-emergence): 30%
Herbicidal action 28 DAT [%] against Poa annua L. (180 g a.i./ha, post-emergence): 20%
Herbicidal action 14 DAT [%] against Centaurea cyanus (540 g a.i./ha, post-emergence): 85%
Herbicidal action 14 DAT [%] against Lolium rigidum (resistant biotype) (540 g a.i./ha, post-emergence): 50%
Herbicidal action 14 DAT [%] against Phalaris minor (540 g a.i./ha, post-emergence): 60%
Herbicidal action 28 DAT [%] against Centaurea cyanus (540 g a.i./ha, post-emergence): 70%
Herbicidal action 28 DAT [%] against Lolium rigidum (540 g a.i./ha, post-emergence): 40%
Herbicidal action 28 DAT [%] against Lolium rigidum (resistant biotype) (540 g a.i./ha, post-emergence): 30%
Herbicidal action 28 DAT [%] against Phalaris minor (540 g a.i./ha, post-emergence): 40%
